{"source": "patent US8158560B2", "about": "“Insecticidal arylpyrroline compounds” (Bayer CropScience AG, priority 2009, dated 2012)", "format_in_all_cases": "in vivo", "key": {"Adoxophyes honmai": {"tested_on": "Adoxophyes honmai", "experiment": "Adoxophyes honmai test (ADXPFA), treated artificial diet", "details": "0.8 ppm, 2 dat", "description": "Procedure: Broccoli seedlings of 4-5 leaf stage planted in a vinyl pot (9 cm diameter) are sprayed with the solution. After drying half of the leaves of the plants are cut and put into a A-PET cup. Ten larvae of Plutella xylostella L3 are released in the cup and the dish is placed at 25° C. After 4 days another half leaf is cut and added to the dish. After the specified period of time mortality in % is determined according to the figures of mortality used for evaluation. • 1 larva dead: 20% Efficacy • 5 larvae dead: 100% Efficacy Adoxophyes honmai—Test (ADXPFA)\nInsect: Adoxophyes honmai from own culture\nMaterial: 1 A-PET cup with lid\nFood agent: 4.5 g of artificial diet powder Silkmate-Kantan-3®\n(§1) Solvent pre-mixture: Sorpol® SD: Sorpol® BDB:Dimethylformamide=3:3:14\n10 mg a i. is solved with 0.05 ml solvent pre-mixture. Water for dilution contains RME and AS (1000 ppm each) or 0.1% of spreader. Solutions are diluted at the rate of 1:5 for limit concentration determination.\nProcedure: 4.5 g of artificial diet powder is put into a PET cup (10 cm diameter, 5 cm depth). The powder was leveled to make a layer in the bottom of the cup. […]\n(§2) After the specified period of time mortality in % is determined according to the following criteria: • 1 larva dead: 20% Efficacy • 5 larvae dead: 100% Efficacy Frankliniella occidentalis—Spray-Test (FRANOC)"}, "[1]": {"tested_on": "Frankliniella occidentalis", "experiment": "Frankliniella occidentalis spray test (FRANOC)", "details": "0.16 ppm, 7 dat", "description": "as §2\nInsect: Frankliniella occidentalis from own culture\nPlant: Cucumber seedlings, cotyledon stage\nas §1\n(§3) 10 mg a i. is solved with 0.05 ml solvent pre-mixture.\n(§4) Water for dilution contains RME and AS (1000 ppm each) or 0.1% of spreader. Solutions are diluted at the rate of 1:5 for limit concentration determination.\nProcedure: The solution is sprayed to a cucumber seedling. After drying, the plant is placed in a plastic stand. About fifty 1st-instar larvae were inoculated to the plant and covered with a cage. The plant is stored at 25° C.\nAfter the specified period of time % efficacy is determined by rating feeding damages on the plant according to the following criteria: […]"}, "[2]": {"tested_on": "Nephotettix cincticeps-MR, resistant strain, 3rd-4th instar nymphs", "experiment": "Nephotettix cincticeps spray test (NEPHCI)", "details": "20 ppm, 7 dat", "description": "Nephotettix cincticeps-Spray Test (NEPHCl)\nInsect: Nephotettix cincticeps-MR, resistant strain, 3rd-4th instar nymphs from own culture\nPlant: Rice seedlings (Oryza sativa var. Tamanishiki)\nMaterial: ST-method container (200 ml desiccant polystyrene bottle) with a hole in the bottom sealed with metal mesh. The lid has a pit inside to keep desiccant, and it is used to sow rice seeds. The bottle is used upside down as “cover”, the lid with seedling is called “base”. Plastic stand-board with magnet labels to line the ST Bases up (“Stand”)\nSolvent pre-mixture: Sorpol® SD: Sorpol® BDB:Dimethylformamide=3:3:14 10 mg a i. is solved with 0.05 ml solvent pre-mixture. Water for dilution contains RME and AS (1000 ppm each) or 0.1% of spreader. Solutions are diluted at the rate of 1:5 for limit concentration determination.\nProcedure: On a pit in the center of a base (originally the desiccant space) pieces of paper towel are placed. 20-30 germinated rice seeds are sown on the paper and moistened with water. The base is covered with a plastic cup and kept in an incubator at 30° C. for five days.\nThe base with rice seedlings is placed on the Stand. Each base is sprayed with the solution.\nAfter drying twelve 3rd-4th instar nymphs of Nephotettix cincticeps-MR are put on the base and confined with the cover. The ST containers on the Stands are kept in the testing room at 25° C. and 50-60% r.h., 16L8D lighting conditions.\nAfter the specified period of time mortality in % is determined by rating according to the following scheme/criteria: Counting living moving insects, calculate mortality in % by the formula: […]"}, "[3]": {"tested_on": "Myzus persicae-resistant strain, mixed population", "experiment": "Myzus persicae spray test (MYZUPE)", "details": "4 ppm, 6 dat", "description": "Myzus persicae—Spray Test (MYZUPE)\nInsect: Myzus persicae-resistant strain, mixed population\nPlant: Eggplant seedling (Solanum melongena var. Senryo 2gou) 2 leaf age (4-5 weeks after sowing), transplanted into vinyl pots of 60 mm diameter\nSolvent pre-mixture: Sorpol® SD: Sorpol® BDB:Dimethylformamide=3:3:14; 10 mg a.i. is solved with 0.05 ml solvent pre-mixture. Water for dilution contains RME and AS (1000 ppm each) or 0.1% of spreader. Solutions are diluted at the rate of 1:5 for limit concentration determination.\nProcedure: 1 day before treatment aphids are inoculated onto the testing plants, about 50 aphids per leaf, 100 for 1 pot. A paper label is placed on each pot. Solutions are sprayed directly onto both insects and plants. After drying pots are placed in the greenhouse at 20° C.-25° C. and 50-60% relative humidity.\nAfter the specified period of time the mortality in % is determined and the rate of death is calculated according to the following scheme/criteria: […]"}, "[4]": {"tested_on": "Aulacophora femoralis 2nd instar larvae", "experiment": "Aulacophora femoralis spray test (AUACFE)", "details": "0.8 ppm, 6 dat, rating scheme b297", "description": "Aulacophora femoralis—Spray Test (AUACFE)\nInsect: Aulacophora femoralis 2nd instar larvae from own culture;\nMaterial: PET cups with 5 ml soil and A-PET lids\nPlant: Cucumber (Cucumis sativus var. Hanshiro), cotyledon stage; 1 plant per pot;\nSolvent pre-mixture: Sorpol® SD: Sorpol® BDB:Dimethylformamide=3:3:14;\n10 mg a.i. solved with 0.05 ml solvent pre-mixture. Water for dilution contains RME and AS (1000 ppm each) or 0.1% of spreader. Solutions are diluted at the rate of 1:5 for limit concentration determination.\nProcedure: Solutions are sprayed onto a plant. After drying, plants are cut and put on the soil in the testing cup. Five larvae L2 are released into each testing cup.\nThe testing cup is covered with the lid and stored at 25° C. and 50-60% r.h., 16L8D lighting conditions.\nAfter the specified period of time, the mortality in % is determined according to the following scheme/criteria: […]"}, "Panonychus citri": {"tested_on": "Panonychus citri", "experiment": "Panonychus citri spray test (METTCI)", "details": "4 ppm, 7 dat, rating scheme b306", "description": "Panonychus citri—Spray Test (METTCI)\nPlant: Citrus plants, ca 8 cm height\nas §1, §3, §4\nProcedure: 1 day before treatment mites were inoculated onto potted citrus plants, about 50 adults and some nymphs for 1 pot. The test solution is sprayed directly onto both mites and plants. After drying pots are stored at 25° C.\nAfter the specified period of time mortality in % is determined by rating according to the following scheme/criteria."}, "[5]": {"tested_on": "Bemisia tabacii biotype B", "experiment": "Bemisia tabacii spray test (BEMIAR)", "details": "100 ppm, 14 dat, rating scheme b324", "description": "Bemisia tabacii—Spray-Test (BEMIAR)\nInsect: Bemisia tabacii biotype B\nPlant: Tomato seedlings, 5 leaf stage in vinyl pots of 40 mm diameter\nas §1\n10 mg a.i. is solved with 0.05 ml solvent pre-mixture. Water for dilution contains RME and AS (1000 ppm each) or 0.1% of spreader. Solutions are diluted at the rate of 1:5 for limit concentration determination.\nProcedure: Solutions are sprayed to the plants. After drying treated pots are placed in the greenhouse where breeding BEMIAR for an infection-time of 24 h. Then the plants is placed in the testing room at 25° C. and 50-60% r.h., 16L8D lighting conditions.\nAfter the specified period of time mortality in % is determined according to the following scheme/criteria: […]"}}, "note": "“And” between values parts separate entries of the source, which are not always exact repeats. Identical values can stand only once."}
{"compound": "Cc1cc(C2=NOC(c3cc(C(F)(F)F)cc(C(F)(F)F)c3)(C(F)(F)F)C2)ccc1C(=O)NC1C[S+]([O-])C1", "note": "(stereo not drawn) [ExNo A-23 of WO 2009/080250, reference compound]", "values": [{"measurement": "Efficacy/day(s) of treatment", "setting": "Adoxophyes honmai", "result": 40, "unit": "%/2 dat"}, {"measurement": "Efficacy/day(s) of treatment", "setting": "[1]", "result": 60, "unit": "%/7 dat"}, {"measurement": "Efficacy/day(s) of treatment", "setting": "[2]", "result": 40, "unit": "%/7 dat"}, {"measurement": "Efficacy/day(s) of treatment", "setting": "[3]", "result": 60, "unit": "%/6 dat"}]}
{"compound": "4-{3-[3,5-Bis(trifluoromethyl)phenyl]-3-(trifluoromethyl)-3,4-dihydro-2H-pyrrol-5-yl}-2-methyl-N-(thietan-3-yl)benzamide [Compound 1-19]", "values": [{"measurement": "Efficacy/day(s) of treatment", "setting": "Adoxophyes honmai", "result": 60, "unit": "%/2 dat"}, {"measurement": "Efficacy/day(s) of treatment", "setting": "[1]", "result": 98, "unit": "%/7 dat"}, {"measurement": "Efficacy/day(s) of treatment", "setting": "[2]", "result": "20%/7 dat and 80%/7 dat"}, {"measurement": "Efficacy/day(s) of treatment", "setting": "[4]", "result": 100, "unit": "%/6 dat"}, {"measurement": "Efficacy/day(s) of treatment", "setting": "[3]", "result": 90, "unit": "%/6 dat"}, {"measurement": "Efficacy/day(s) of treatment", "setting": "[3]; rating scheme", "result": 98, "unit": "%/6 dat"}, {"measurement": "Efficacy/day(s) of treatment", "setting": "Panonychus citri", "result": 60, "unit": "%/7 dat"}, {"measurement": "Efficacy/day(s) of treatment", "setting": "[5]", "result": 100, "unit": "%/14 dat"}]}
